From US4468394A, “Cephalosporin compounds” (Eisai Co., Ltd., priority 1981, dated 1984)
In brackets after ≈: the same amount, converted by molar mass. Counter-ions that a name gives are not always drawn.

Tests used:
[1] = tested on: Pseud. aeruginosa EP-069; test: Antibacterial activity (MIC), Pseud. aeruginosa EP-069; assay type: cell-based; settings: Pseudomonas aeruginosa
From the text: (§1) Tables 1 and 2 show the antibacterial activity (MIC, μg/mL) of the compounds of this invention.

[2] = tested on: Pseud. aeruginosa EP-071; test: Antibacterial activity (MIC), Pseud. aeruginosa EP-071; assay type: cell-based; settings: Pseudomonas aeruginosa
From the text: as §1

[3] = tested on: Kleb. pneumoniae EK-6; test: Antibacterial activity (MIC), Kleb. pneumoniae EK-6; assay type: cell-based; settings: Klebsiella pneumoniae
From the text: as §1

[4] = tested on: Pseud. aeruginosa EP-067; test: Antibacterial activity (MIC), Pseud. aeruginosa EP-067; assay type: cell-based; settings: Pseudomonas aeruginosa
From the text: as §1

[5] = tested on: Pseud. aeruginosa; settings: in words; cited from earlier work
[6] = tested on: Kleb. pneumoniae; settings: in words; cited from earlier work
[7] = Acute toxicity LD50 (mouse, oral); settings: in vivo
From the text: The acute toxicity values [LD50 (mouse, oral)] of the compounds of this invention are higher than 4 g/kg in the case of 7β-[D-2-(6,7-dihydroxy-4-oxo-4H-1-benzothiopyran-3-carboxamide)-2-(4- hydroxyphenyl)acetamide]-3-(1-carboxymethyl-5-tetrazolyl)thiomethyl-3-cephem-4-carboxylic acid and 7β-[D-2-(6,7-diacetoxy-1-ethyl-1,4-dihydro-4-oxoquinoline-3-carboxamide)-2-(4-hydroxyphenyl)acetamide]-3-(1-carboxymethyl-5-tetrazolyl)thiomethyl-3-cephem-4-carboxylic acid, as well as 7β-[D-2-(6,7-dihydroxy-2-oxo-2H-1-benzopyran-3-carboxamide)-2-(4-hydroxyphenyl)acetamide]-3-(1-carboxymethyl-5-tetrazolyl)thiomethyl-3-cephem-4-carboxylic acid and 7β-[D-2-(6,7-dihydroxy-2-oxo-2H-1-benzothiopyran-3-carboxamide)-2-(4- hydroxyphenyl)acetamide]-3-(1-carboxymethyl-5-tetrazolyl)thiomethyl-3-cephem-4-carboxylic acid.

## CC(=O)OCC1=C(C(=O)O)N2C(=O)[C@@H](NC(=O)[C@H](NC(=O)c3cc4ccc(O)c(O)c4oc3=O)c3ccc(O)cc3)[C@H]2SC1 [Example 25, 7β-[D-2-(7,8-Dihydroxy-2-oxo-2H-1-benzopyran-3-carboxamide)-2-(4-hydroxyphenyl)acetamide]-3-acetoxymethyl-3-cephem-4-carboxylic acid]
[1]; EP069, Table 2
  MIC: 1.56 µg/mL (≈ 2.49 µM)
[2]; EP071, Table 2
  MIC: 0.1 µg/mL (≈ 0.16 µM)
[3]; EK6, Table 2
  MIC: 0.1 µg/mL (≈ 0.16 µM)
[4]; EP067, Table 2
  MIC: 0.8 µg/mL (≈ 1.28 µM)

## Cn1nnnc1SCC1=C(C(=O)O)N2C(=O)[C@@H](NC(=O)[C@H](NC(=O)c3cc4cc(O)c(O)cc4oc3=O)c3ccc(O)cc3)[C@H]2SC1 [Example 20, 7β-[D-2-(6,7-Dihydroxy-2-oxo-2H-1-benzopyran-3-carboxamide)-2-(4-hydroxyphenyl)acetamide]-3-(1-methyl-5-tetrazolyl)thiomethyl-3-cephem-4-carboxylic acid]
[1]; EP069, Table 2
  MIC: 0.8 µg/mL (≈ 1.17 µM)
[2]; EP071, Table 2
  MIC: 0.2 µg/mL (≈ 0.293 µM)
[3]; EK6, Table 2
  MIC: 0.2 µg/mL (≈ 0.293 µM)
[4]; EP067, Table 2
  MIC: 0.8 µg/mL (≈ 1.17 µM)

## CC1(C)S[C@@H]2[C@H](NC(=O)[C@H](NC(=O)c3cc4ccccc4oc3=O)c3ccccc3)C(=O)N2[C@H]1C(=O)O [D(-)-α-(coumarin-3-carboxamide)benzylpenicillin, reference compound]
[1]; EP069, Table 2
  MIC: 12.5 µg/mL (≈ 24 µM)
[5]
  antibacterial activity according to the known literature: highest in antibacterial activity
[2]; EP071, Table 2
  MIC: 1.56 µg/mL (≈ 2.99 µM)
[3]; EK6, Table 2
  MIC: 12.5 µg/mL (≈ 24 µM)
[6]
  antibacterial activity according to the known literature: highest in antibacterial activity
[4]; EP067, Table 2
  MIC: 12.5 µg/mL (≈ 24 µM)

## O=C(O)Cn1nnnc1SCC1=C(C(=O)O)N2C(=O)[C@@H](NC(=O)[C@H](NC(=O)c3cc4cc(O)c(O)cc4sc3=O)c3ccc(O)cc3)[C@H]2SC1 [Example 30]
[7]
  LD50: > 4000 mg/kg

## O=C(O)Cn1nnnc1SCC1=C(C(=O)O)N2C(=O)[C@@H](NC(=O)[C@H](NC(=O)c3cc4ccc(O)c(O)c4oc3=O)c3ccc(O)cc3)[C@H]2SC1 [Example 27, 7β-[D-(7,8-Dihydroxy-2-oxo-2H-1-benzopyran-3-carboxamide)-2-(4-hydroxyphenyl)acetamide]-3-(1-carboxymethyl-5-tetrazolyl)thiomethyl-3-cephem-4-carboxylic acid]
[1]; EP069, Table 2
  MIC: 1.56 µg/mL (≈ 2.15 µM)
[2]; EP071, Table 2
  MIC: 0.1 µg/mL (≈ 0.138 µM)
[3]; EK6, Table 2
  MIC: ≤ 0.012 µg/mL
[4]; EP067, Table 2
  MIC: 1.56 µg/mL (≈ 2.15 µM)

## Cc1nnc(SCC2=C(C(=O)O)N3C(=O)[C@@H](NC(=O)[C@H](NC(=O)c4cc5cc(O)c(O)cc5[nH]c4=O)c4ccc(O)cc4)[C@H]3SC2)s1 [Example 34, 7β-[D-2-(6,7-Dihydroxy-1,2-dihydro-2-oxoquinoline-3-carboxamide)-2-(4-hydroxyphenyl)acetamide]-3-[5-methyl-2-(1,3,4-thiadiazolyl)]thiomethyl-3-cephem-4-carboxylic acid]
[1]; EP069, Table 2
  MIC: 3.13 µg/mL (≈ 4.49 µM)
[2]; EP071, Table 2
  MIC: 0.4 µg/mL (≈ 0.574 µM)
[3]; EK6, Table 2
  MIC: 0.4 µg/mL (≈ 0.574 µM)
[4]; EP067, Table 2
  MIC: 3.13 µg/mL (≈ 4.49 µM)

## CC(=O)Oc1cc2cc(C(=O)N[C@@H](C(=O)N[C@@H]3C(=O)N4[C@@H]3SC(C)(C)[C@@H]4C(=O)O)c3ccccc3)c(=O)oc2cc1OC(C)=O [Example 14, 6β-[D-2-(6,7-Diacetoxy-2-oxo-2H-1-benzopyran-3-carboxamide)-2-phenylacetamide]penicillanic acid]
[1]; EP069, Table 2
  MIC: 1.56 µg/mL (≈ 2.45 µM)
[2]; EP071, Table 2
  MIC: 0.2 µg/mL (≈ 0.314 µM)
[3]; EK6, Table 2
  MIC: 0.2 µg/mL (≈ 0.314 µM)
[4]; EP067, Table 2
  MIC: 1.56 µg/mL (≈ 2.45 µM)

## CO[C@@]1(NC(=O)[C@H](NC(=O)c2csc3cc(OC(C)=O)c(OC(C)=O)cc3c2=O)c2ccc(O)cc2)C(=O)N2C(C(=O)O)=C(COC(C)=O)CS[C@@H]21 [Example 11, 7β-[D-2-(6,7-Diacetoxy-4-oxo-4H-1-benzothiopyran-3-carboxamide)-2-(4-hydroxyphenyl)acetamide]-7α-methoxy-3-acetoxymethyl-3-cephem-4-carboxylic acid]
[1]; EP069, Table 1
  MIC: 3.13 µg/mL (≈ 4.14 µM)
[2]; EP071, Table 1
  MIC: 0.2 µg/mL (≈ 0.265 µM)
[3]; EK6, Table 1
  MIC: 0.024 µg/mL (≈ 0.0318 µM)
[4]; EP067, Table 1
  MIC: 3.13 µg/mL (≈ 4.14 µM)

## CC1(C)S[C@@H]2[C@H](NC(=O)[C@H](NC(=O)c3cnc4cccnc4c3O)c3ccccc3)C(=O)N2[C@H]1C(=O)O [D(-)-α-(4-hydroxy-1,5-naphthyridine-3-carboxamide)benzylpenicillin, reference compound]
[1]; EP069, Table 1
  MIC: 12.5 µg/mL (≈ 24 µM)
[5]
  antibacterial activity according to the known literature: highest antibacterial activity
[2]; EP071, Table 1
  MIC: 0.8 µg/mL (≈ 1.53 µM)
[3]; EK6, Table 1
  MIC: 3.13 µg/mL (≈ 6 µM)
[4]; EP067, Table 1
  MIC: 12.5 µg/mL (≈ 24 µM)

## CC(=O)OCC1=C(C(=O)O)N2C(=O)[C@@H](NC(=O)[C@H](NC(=O)c3cc4cc(OC(C)=O)c(OC(C)=O)cc4n(C)c3=O)c3ccc(O)cc3)[C@H]2SC1 [Example 35, 7β-[D-2-(6,7-Diacetoxy-1-methyl-1,2-dihydro-2-oxoquinoline-3-carboxamide)-2-(4-hydroxyphenyl)acetamide]-3-acetoxymethyl-3-cephem-4-carboxylic acid]
[1]; EP069, Table 2
  MIC: 1.56 µg/mL (≈ 2.16 µM)
[2]; EP071, Table 2
  MIC: 0.2 µg/mL (≈ 0.277 µM)
[3]; EK6, Table 2
  MIC: 0.8 µg/mL (≈ 1.11 µM)
[4]; EP067, Table 2
  MIC: 3.13 µg/mL (≈ 4.33 µM)

## CCn1cc(C(=O)N[C@@H](C(=O)N[C@@H]2C(=O)N3C(C(=O)O)=C(CSc4nnc(C)s4)CS[C@H]23)c2ccc(O)cc2)c(=O)c2cc(OC(C)=O)c(O)cc21 [Example 12, 7β-[D-2-(6-Acetoxy-7-hydroxy-1-ethyl-1,4-dihydro-4-oxoquinoline-3-carboxamide)-2-(4-hydroxyphenyl)acetamide]-3-[5-methyl-2-(1,3,4-thiadiazolyl)]thiomethyl-3-cephem-4-carboxylic acid sodium salt]
[1]; EP069, Table 1
  MIC: 3.13 µg/mL
[2]; EP071, Table 1
  MIC: 0.2 µg/mL
[3]; EK6, Table 1
  MIC: 0.024 µg/mL
[4]; EP067, Table 1
  MIC: 3.13 µg/mL

## CCn1cc(C(=O)N[C@@H](C(=O)N[C@@H]2C(=O)N3[C@@H]2SC(C)(C)[C@@H]3C(=O)O)c2ccccc2)c(=O)c2cc(OC(C)=O)c(OC(C)=O)cc21 [Example 2, 6β-[D-2-(6,7-Diacetoxy-1-ethyl-1,4-dihydro-4-oxoquinoline-3-carboxamide)-2-phenylacetamide]penicillanic acid]
[1]; EP069, Table 1
  MIC: 3.13 µg/mL (≈ 4.71 µM)
[2]; EP071, Table 1
  MIC: 0.1 µg/mL (≈ 0.15 µM)
[3]; EK6, Table 1
  MIC: 0.2 µg/mL (≈ 0.301 µM)
[4]; EP067, Table 1
  MIC: 1.56 µg/mL (≈ 2.35 µM)

## CCn1cc(C(=O)N[C@@H](C(=O)N[C@@H]2C(=O)N3C(C(=O)O)=C(CSc4nnnn4CC(=O)O)CS[C@H]23)c2ccc(O)cc2)c(=O)c2cc(OC(C)=O)c(OC(C)=O)cc21 [Example 5, 7β-[D-2-(6,7-Diacetoxy-1-ethyl-1,4-dihydro-4-oxoquinoline-3-carboxamide)-2-(4-hydroxyphenyl)acetamide]-3-(1-carboxymethyl-5-tetrazolyl)thiomethyl-3-cephem-4-carboxylic acid]
[1]; EP069, Table 1
  MIC: 3.13 µg/mL (≈ 3.74 µM)
[2]; EP071, Table 1
  MIC: 0.2 µg/mL (≈ 0.239 µM)
[3]; EK6, Table 1
  MIC: 0.024 µg/mL (≈ 0.0287 µM)
[7]
  LD50: > 4000 mg/kg
[4]; EP067, Table 1
  MIC: 3.13 µg/mL (≈ 3.74 µM)

## O=C(O)Cn1nnnc1SCC1=C(C(=O)O)N2C(=O)[C@@H](NC(=O)[C@H](NC(=O)c3csc4cc(O)c(O)cc4c3=O)c3ccc(O)cc3)[C@H]2SC1 [Example 10, 7β-[D-2-(6,7-Dihydroxy-4-oxo-4H-1-benzothiopyran-3-carboxamide)-2-(4-hydroxyphenyl)acetamide]-3-(1-carboxymethyl-5-tetrazolyl)thiomethyl-3-cephem-4-carboxylic acid]
[1]; EP069, Table 1
  MIC: 3.13 µg/mL (≈ 4.22 µM)
[2]; EP071, Table 1
  MIC: 0.2 µg/mL (≈ 0.27 µM)
[3]; EK6, Table 1
  MIC: ≤ 0.012 µg/mL
[7]
  LD50: > 4000 mg/kg
[4]; EP067, Table 1
  MIC: 3.13 µg/mL (≈ 4.22 µM)

## CC(=O)Oc1cc2cc(C(=O)N[C@@H](C(=O)N[C@@H]3C(=O)N4[C@@H]3SC(C)(C)[C@@H]4C(=O)O)c3ccccc3)c(=O)sc2cc1OC(C)=O [Example 28, 6β-[D-2-(6,7-Diacetoxy-2-oxo-2H-1-benzothiopyran-3-carboxamide)-2-phenylacetamide]penicillanic acid]
[1]; EP069, Table 2
  MIC: 3.13 µg/mL (≈ 4.79 µM)
[2]; EP071, Table 2
  MIC: 0.1 µg/mL (≈ 0.153 µM)
[3]; EK6, Table 2
  MIC: 0.1 µg/mL (≈ 0.153 µM)
[4]; EP067, Table 2
  MIC: 1.56 µg/mL (≈ 2.39 µM)

## O=C(O)Cn1nnnc1SCC1=C(C(=O)O)N2C(=O)[C@@H](NC(=O)[C@H](NC(=O)c3cc4cc(O)c(O)cc4oc3=O)c3ccc(O)cc3)[C@H]2SC1 [Example 21, 7β-[D-2-(6,7-Dihydroxy-2-oxo-2H-1-benzopyran-3-carboxamide)-2-(4-hydroxyphenyl)acetamide]-3-(1-carboxymethyl-5-tetrazolyl)thiomethyl-3-cephem-4-carboxylic acid]
[7]
  LD50: > 4000 mg/kg

## CCn1cc(C(=O)N[C@@H](C(=O)N[C@@H]2C(=O)N3C(C(=O)O)=C(CSc4nnc(C)s4)CS[C@H]23)c2ccc(O)cc2)c(=O)c2cc(O)c(O)cc21 [Example 6, 7β-[D-2-(6,7-Dihydroxy-1-ethyl-1,4-dihydro-4-oxoquinoline-3-carboxamide)-2-(4-hydroxyphenyl)acetamide]-3-[5-methyl-2-(1,3,4-thiadiazolyl)]thiomethyl-3-cephem-4-carboxylic acid]
[1]; EP069, Table 1
  MIC: 3.13 µg/mL (≈ 4.32 µM)
[2]; EP071, Table 1
  MIC: 0.2 µg/mL (≈ 0.276 µM)
[3]; EK6, Table 1
  MIC: 0.05 µg/mL (≈ 0.069 µM)
[4]; EP067, Table 1
  MIC: 3.13 µg/mL (≈ 4.32 µM)
